Measured values from ChEMBL document CHEMBL4346710, “Discovery of 7H-pyrrolo[2,3-d]pyrimidine derivatives as selective covalent irreversible inhibitors of interleukin-2-inducible T-cell kinase (Itk)” (Eur J Med Chem, 2019).
Active and inactive are the calls of the source. No cut-off for these calls is given here.

Experiments:
[1] = target: Interleukin-1 receptor-associated kinase 4 (Homo sapiens) (UniProt Q9NWZ3); assay: (§1) Inhibition of recombinant human His-tagged IRAK4 expressed in baculovirus expression system assessed as enzyme residual activity at 0.4 uM using fluorophore-labeled serine/threonine-7 peptide as substrate incubated for 60 mins by Z'-LYTE assay relative to control
Chain of Interleukin-1 receptor-associated kinase 4 (Homo sapiens) (Q9NWZ3 whole entry, the tested form may be a part): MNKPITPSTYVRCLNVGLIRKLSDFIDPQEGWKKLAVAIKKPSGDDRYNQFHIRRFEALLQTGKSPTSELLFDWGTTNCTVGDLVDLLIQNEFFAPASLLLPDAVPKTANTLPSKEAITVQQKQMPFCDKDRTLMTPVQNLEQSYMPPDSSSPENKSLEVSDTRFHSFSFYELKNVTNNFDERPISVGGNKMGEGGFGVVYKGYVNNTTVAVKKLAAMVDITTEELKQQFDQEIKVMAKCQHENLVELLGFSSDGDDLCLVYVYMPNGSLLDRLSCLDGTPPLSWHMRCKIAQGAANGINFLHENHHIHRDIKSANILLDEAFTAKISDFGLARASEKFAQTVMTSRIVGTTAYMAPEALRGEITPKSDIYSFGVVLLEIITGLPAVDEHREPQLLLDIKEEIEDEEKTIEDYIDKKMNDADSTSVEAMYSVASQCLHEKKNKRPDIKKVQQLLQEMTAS

[2] = target: Hepatocyte growth factor receptor (Homo sapiens) (UniProt P08581); assay: as §1, with “human N-terminal” for “human”, “cMET cytoplasmic domain (956 to 1390 residues)” for “IRAK4”, “tyrosine 6” for “serine/threonine-7”
Chain of Hepatocyte growth factor receptor (Homo sapiens) (P08581 whole entry, the tested form may be a part): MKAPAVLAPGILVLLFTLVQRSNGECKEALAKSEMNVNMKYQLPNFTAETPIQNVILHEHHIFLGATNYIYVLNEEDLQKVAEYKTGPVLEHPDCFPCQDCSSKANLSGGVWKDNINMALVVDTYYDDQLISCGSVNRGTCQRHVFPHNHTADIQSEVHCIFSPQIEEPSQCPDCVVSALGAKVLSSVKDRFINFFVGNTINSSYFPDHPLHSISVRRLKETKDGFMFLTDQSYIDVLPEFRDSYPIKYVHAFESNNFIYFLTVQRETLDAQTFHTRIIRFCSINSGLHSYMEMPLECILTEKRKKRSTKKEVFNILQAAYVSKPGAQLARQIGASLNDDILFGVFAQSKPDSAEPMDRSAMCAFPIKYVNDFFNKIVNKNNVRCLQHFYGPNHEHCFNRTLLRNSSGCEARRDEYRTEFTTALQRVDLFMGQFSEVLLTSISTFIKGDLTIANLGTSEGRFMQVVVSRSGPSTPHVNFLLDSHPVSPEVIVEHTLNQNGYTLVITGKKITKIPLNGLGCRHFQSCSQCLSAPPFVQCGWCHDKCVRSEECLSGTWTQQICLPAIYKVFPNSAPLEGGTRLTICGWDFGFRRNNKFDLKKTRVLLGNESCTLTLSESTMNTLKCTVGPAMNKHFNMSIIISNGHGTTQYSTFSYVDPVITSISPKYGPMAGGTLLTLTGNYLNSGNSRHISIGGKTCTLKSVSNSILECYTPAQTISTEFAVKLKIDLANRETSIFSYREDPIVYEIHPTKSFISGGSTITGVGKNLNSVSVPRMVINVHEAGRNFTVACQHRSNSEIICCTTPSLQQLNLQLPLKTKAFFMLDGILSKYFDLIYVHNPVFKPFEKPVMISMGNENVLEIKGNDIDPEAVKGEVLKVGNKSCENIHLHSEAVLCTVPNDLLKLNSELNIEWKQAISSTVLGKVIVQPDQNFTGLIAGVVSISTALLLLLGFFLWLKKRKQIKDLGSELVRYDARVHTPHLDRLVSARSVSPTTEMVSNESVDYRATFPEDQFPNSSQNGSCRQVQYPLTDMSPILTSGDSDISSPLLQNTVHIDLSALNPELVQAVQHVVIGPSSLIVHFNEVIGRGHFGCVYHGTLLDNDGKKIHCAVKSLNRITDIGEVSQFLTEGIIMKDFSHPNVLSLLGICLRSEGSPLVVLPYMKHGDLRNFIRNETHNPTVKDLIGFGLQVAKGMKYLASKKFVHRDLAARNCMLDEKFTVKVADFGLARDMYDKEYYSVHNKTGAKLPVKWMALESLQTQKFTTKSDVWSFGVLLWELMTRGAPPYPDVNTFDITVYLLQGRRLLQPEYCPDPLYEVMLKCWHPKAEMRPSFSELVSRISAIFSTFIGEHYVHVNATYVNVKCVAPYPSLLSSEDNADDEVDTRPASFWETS

[3] = target: Aurora kinase B (Homo sapiens) (UniProt Q96GD4); assay: Inhibition of recombinant full length human His-tagged Aurora B expressed in baculovirus expression system assessed as enzyme residual activity at 0.4 uM using fluorophore-labeled serine/threonine-1 peptide as substrate incubated for 60 mins by Z'-LYTE assay relative to control
Chain of Aurora kinase B (Homo sapiens) (Q96GD4 whole entry): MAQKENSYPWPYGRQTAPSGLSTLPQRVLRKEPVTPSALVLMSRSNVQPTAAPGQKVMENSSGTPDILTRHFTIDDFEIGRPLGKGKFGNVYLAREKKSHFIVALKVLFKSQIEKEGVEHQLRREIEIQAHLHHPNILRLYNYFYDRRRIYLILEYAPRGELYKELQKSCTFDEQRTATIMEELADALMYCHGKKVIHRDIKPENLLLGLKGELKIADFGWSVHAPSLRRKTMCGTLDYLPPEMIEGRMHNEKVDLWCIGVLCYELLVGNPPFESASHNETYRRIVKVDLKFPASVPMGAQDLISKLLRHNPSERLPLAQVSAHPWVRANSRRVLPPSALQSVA

[4] = target: T1, Tyrosine-protein kinase JAK3 (Homo sapiens, UniProt P52333); assay: Inhibition of recombinant human N-terminal His6-tagged JAK3 (781 to end residues) expressed in baculovirus infected Sf21 cells using STK as substrate by HTRF assay
T1 sequence (P52333 whole entry): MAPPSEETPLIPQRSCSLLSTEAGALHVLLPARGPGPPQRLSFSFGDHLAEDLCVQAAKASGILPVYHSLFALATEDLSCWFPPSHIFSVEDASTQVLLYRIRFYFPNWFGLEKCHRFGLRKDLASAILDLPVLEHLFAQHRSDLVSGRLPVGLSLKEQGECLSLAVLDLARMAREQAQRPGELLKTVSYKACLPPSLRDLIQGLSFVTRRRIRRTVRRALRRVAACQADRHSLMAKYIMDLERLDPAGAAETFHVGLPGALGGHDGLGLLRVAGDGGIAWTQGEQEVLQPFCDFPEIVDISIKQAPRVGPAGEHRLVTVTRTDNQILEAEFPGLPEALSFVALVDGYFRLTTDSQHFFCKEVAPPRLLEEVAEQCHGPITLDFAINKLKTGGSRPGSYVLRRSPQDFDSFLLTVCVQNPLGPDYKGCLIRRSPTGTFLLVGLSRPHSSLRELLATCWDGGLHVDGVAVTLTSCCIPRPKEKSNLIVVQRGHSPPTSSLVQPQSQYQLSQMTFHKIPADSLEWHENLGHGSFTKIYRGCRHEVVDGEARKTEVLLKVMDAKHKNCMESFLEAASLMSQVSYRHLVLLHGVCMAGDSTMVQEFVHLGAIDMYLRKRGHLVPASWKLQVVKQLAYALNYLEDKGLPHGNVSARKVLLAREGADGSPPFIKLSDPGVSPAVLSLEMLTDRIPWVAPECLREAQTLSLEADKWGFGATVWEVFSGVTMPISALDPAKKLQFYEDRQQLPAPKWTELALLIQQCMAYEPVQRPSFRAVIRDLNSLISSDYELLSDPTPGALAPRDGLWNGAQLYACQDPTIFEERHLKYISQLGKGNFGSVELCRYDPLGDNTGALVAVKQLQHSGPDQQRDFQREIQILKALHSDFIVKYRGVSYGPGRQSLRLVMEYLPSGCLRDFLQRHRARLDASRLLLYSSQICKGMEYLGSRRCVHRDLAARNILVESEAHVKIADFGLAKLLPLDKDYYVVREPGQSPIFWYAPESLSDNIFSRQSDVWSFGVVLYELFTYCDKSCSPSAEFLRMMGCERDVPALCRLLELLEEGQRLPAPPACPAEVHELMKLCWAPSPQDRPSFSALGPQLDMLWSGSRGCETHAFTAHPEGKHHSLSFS

[5] = target: Ephrin type-A receptor 2 (Homo sapiens) (UniProt P29317); assay: Inhibition of recombinant human GST-tagged EPHA2 cytoplasmic domain (560 to 976 residues) expressed in baculovirus expression system assessed as enzyme residual activity at 0.4 uM using tyrosine-01 peptide as substrate incubated for 60 mins by Z'-Lyte assay relative to control
Chain of Ephrin type-A receptor 2 (Homo sapiens) (P29317 whole entry, the tested form may be a part): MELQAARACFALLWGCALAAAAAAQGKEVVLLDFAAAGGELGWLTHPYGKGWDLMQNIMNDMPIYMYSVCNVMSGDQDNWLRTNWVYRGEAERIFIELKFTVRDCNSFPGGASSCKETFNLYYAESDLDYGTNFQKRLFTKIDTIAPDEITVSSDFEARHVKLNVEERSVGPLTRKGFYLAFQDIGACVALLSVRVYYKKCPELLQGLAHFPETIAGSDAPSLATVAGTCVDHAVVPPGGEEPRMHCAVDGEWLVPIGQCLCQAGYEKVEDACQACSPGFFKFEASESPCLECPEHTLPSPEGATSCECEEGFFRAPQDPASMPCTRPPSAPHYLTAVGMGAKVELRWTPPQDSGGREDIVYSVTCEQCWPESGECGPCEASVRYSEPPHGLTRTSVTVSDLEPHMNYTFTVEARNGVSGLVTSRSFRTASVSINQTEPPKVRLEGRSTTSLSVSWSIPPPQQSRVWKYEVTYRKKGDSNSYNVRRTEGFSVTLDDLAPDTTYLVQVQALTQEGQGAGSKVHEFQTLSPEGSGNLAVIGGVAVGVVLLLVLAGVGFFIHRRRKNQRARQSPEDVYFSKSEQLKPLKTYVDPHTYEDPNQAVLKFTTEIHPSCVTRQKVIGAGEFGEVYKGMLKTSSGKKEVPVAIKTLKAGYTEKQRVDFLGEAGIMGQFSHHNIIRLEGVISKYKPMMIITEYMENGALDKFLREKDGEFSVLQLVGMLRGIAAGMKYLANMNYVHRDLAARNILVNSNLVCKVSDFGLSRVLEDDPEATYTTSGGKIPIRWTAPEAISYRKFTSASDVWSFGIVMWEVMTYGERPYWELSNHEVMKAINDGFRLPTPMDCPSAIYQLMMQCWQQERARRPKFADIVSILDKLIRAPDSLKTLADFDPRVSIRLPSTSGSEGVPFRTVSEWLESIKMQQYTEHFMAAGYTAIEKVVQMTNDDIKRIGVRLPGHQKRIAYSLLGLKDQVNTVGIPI

MOLT-4 = assay: Induction of apoptosis in human MOLT4 cells assessed as downregulation of PARP at 1 to 20 uM incubated for 24 hrs by Western blot analysis; format: functional, cell-based
CCRF-CEM [6] = assay: Induction of apoptosis in human CCRF-CEM cells assessed as downregulation of PARP at 1 to 5 uM incubated for 24 hrs by Western blot analysis; format: functional, cell-based
CCRF-CEM [7] = assay: Induction of apoptosis in human CCRF-CEM cells assessed as downregulation of caspase3 at 1 to 5 uM incubated for 24 hrs by Western blot analysis; format: functional, cell-based
Homo sapiens [8] = organism: Homo sapiens; assay: Selectivity ratio of IC50 for recombinant human full-length N-terminal His6-tagged BTK expressed in baculovirus infected Sf21 insect cells to IC50 for recombinant human N-terminal His6-tagged ITK (352 to 617 residues) expressed in baculovirus infected Sf21 insect cells
Homo sapiens [9] = organism: Homo sapiens; assay: Selectivity ratio of IC50 for recombinant human N-terminal GST-tagged EGFR kinase domain (696 to end residues) expressed in baculovirus infected Sf21 insect cells to IC50 for recombinant human N-terminal His6-tagged ITK (352 to 617 residues) expressed in baculovirus infected Sf21 insect cells
[10] = target: Tyrosine-protein kinase BTK (Homo sapiens, UniProt Q06187); assay: Inhibition of BTK in human Ramos cells assessed as reduction in […] PLCgamma2 phosphorylation at 10 to 3000 nM preincubated for 2 hrs followed by […] addition and measured after 30 min by Western blot analysis; format: cell-based
Chain of Tyrosine-protein kinase BTK (Q06187 whole entry, the tested form may be a part): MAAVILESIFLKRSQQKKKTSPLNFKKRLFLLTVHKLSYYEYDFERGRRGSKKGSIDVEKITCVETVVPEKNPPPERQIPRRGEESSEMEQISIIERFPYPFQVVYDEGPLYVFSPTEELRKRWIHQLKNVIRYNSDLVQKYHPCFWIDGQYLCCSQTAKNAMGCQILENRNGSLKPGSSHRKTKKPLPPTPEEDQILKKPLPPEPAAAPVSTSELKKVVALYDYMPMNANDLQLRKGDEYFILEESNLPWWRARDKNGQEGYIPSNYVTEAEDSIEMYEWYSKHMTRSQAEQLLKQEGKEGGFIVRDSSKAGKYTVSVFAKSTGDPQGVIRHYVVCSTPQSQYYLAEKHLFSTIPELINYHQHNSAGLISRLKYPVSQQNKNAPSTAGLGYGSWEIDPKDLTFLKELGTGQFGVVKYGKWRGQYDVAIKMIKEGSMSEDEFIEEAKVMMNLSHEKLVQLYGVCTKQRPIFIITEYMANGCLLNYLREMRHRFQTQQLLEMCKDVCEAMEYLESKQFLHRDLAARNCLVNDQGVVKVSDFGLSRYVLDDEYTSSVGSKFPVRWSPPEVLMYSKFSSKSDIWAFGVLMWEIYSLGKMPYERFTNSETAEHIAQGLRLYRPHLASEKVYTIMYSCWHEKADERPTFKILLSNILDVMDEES

[11] = target: T2, Tyrosine-protein kinase ITK/TSK (Homo sapiens) (UniProt Q08881); assay: Inhibition of recombinant full-length human GST-tagged ITK cytoplasmic domain expressed in baculovirus expression system assessed as enzyme residual activity at 0.4 uM using fluorophore-labeled tyrosine-1 peptide as substrate incubated for 60 mins by Z'-LYTE assay relative to control
T2 sequence (whole entry): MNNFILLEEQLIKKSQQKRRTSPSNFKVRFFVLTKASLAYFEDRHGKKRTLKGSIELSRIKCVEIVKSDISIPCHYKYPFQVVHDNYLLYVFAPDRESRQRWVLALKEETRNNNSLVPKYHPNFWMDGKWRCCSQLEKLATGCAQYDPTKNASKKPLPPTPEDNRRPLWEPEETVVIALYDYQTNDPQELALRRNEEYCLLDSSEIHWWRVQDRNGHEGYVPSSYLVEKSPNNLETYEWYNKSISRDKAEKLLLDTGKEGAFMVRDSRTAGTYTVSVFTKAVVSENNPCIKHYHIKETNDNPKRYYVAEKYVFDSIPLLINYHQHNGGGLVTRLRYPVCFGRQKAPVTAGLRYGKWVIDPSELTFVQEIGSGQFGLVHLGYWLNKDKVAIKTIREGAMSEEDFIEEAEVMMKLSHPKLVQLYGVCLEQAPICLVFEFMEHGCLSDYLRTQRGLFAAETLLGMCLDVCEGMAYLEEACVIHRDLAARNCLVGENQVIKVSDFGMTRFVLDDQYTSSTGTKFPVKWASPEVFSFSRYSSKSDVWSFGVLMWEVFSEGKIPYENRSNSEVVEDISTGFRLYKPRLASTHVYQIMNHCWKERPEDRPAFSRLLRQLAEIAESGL

- Activity [1]: 19.3%
- Activity [2]: 79%
- Activity [3]: 36%
- IC50 [4]: 123 nM
- Activity [5]: 95%
- inhibition [10]: inactive
- Activity [11]: 1%
SMILES: C=CC(=O)N1CCC(Oc2nc(Nc3ccc(N4CCOCC4)cc3)nc3[nH]cc(-c4cncc(NC)n4)c23)CC1
- Activity (MOLT-4): Active
- Activity (CCRF-CEM [6]): Active
- Activity (CCRF-CEM [7]): Active
- Ratio IC50 (Homo sapiens [8]): 250
- Ratio IC50 (Homo sapiens [9]): 250
